Here are results for two compounds from patent US11007206B2, “Cyclic boronic acid ester derivatives and therapeutic uses thereof” (Melinta Subsidiary Corp., priority 2012, dated 2021).

Series [1] in a line: in vivo. On the set-up: species or system Swiss-Webster mice. The settings on record: mouse, ip. On the procedure:
Example 2 provides a summary of two pharmacokinetic studies of Biapenem conducted in Swiss-webster mice. The pharmacokinetics of 100 mg/kg and 25 mg/kg of Biapenem via the intraperitoneal route was discussed below.
Biapenem power was purchased from Hisun Pharmaceuticals. 20 mg of Biapenem was dissolved in 0.1 M NaH2PO4 for a basic stock solution. For animal studies, this stock solution was further diluted in 0.9% saline to the appropriate concentration.
The specifications for animals used on this study were as follows: • Species: Mouse • Strain: CFW (Swiss) • Gender: Female • Source: Harlan Laboratories (Livermore, Calif.) • Number of Animals: 33 for each dose • Body Weight Range: 18-22 g at the start of the study
After acclimation, mice were administered a single intraperitoneal dose of biapenem at 25 or 100 mg/kg. […] Blood samples (one sample per animal) were collected by cardiac puncture in a heparin containing tube. The collected heparin tubes were centrifuged within 5 min of collection at 12000 g for 5 min to obtain plasma. The plasma samples were stored on −80° C. until analyzed.
Biapenem standard curves were prepared in 50% plasma-50% 1M MOPS buffer, pH=7.4 from 1 to 250 ug/mL. 20 uL of sample or standard was added into a 96-well deep well plate. Then 500 uL of 10% water-45% methanol-45% acetonitrile containing 2 ug/mL of meropenem was used as an internal standard. The plate was vortexed for 15 min. at 3,000 RPM. 50 uL of supernatant was removed and added 300 uL of water. 10 uL of samples were injected onto an HPLC-MS system for quantification.
The HPLC-MS conditions for the Biapenem plasma analysis are as follows: • Column: Supelco Discovery HS F5 or equivalent pentafluorophenyl column, 5 um, 50×2.1 mm. • Flow rate: 0.6 mL/min. • Mobile phase A: 0.1% formic acid in water. • Mobile phase B: 0.1% formic acid in acetonitrile. • Gradient: 5-70% B in 1.9 min. • Mass spectrometer: Positive ion mode with electrospray ionization. • MS/MS: Biapenem-Q1-m/e=350.8, Q3-m/e=110.1. • meropenem-Q1-m/e=384.1, Q3-m/e=141.1.
Serum concentrations were determined using HPLC. Serum concentrations were fit by using Non-compartmental model of WinNonlin Software (Pharsight. Version 5.3, Mountain View, Calif.).

The nature of series [2]: Single-dose pharmacokinetics of Compound I, intravenous 30-minute infusion in Sprague-Dawley rats (Example 5). It is filed as in vivo. The following applies: Rat; for AUC / Cmax / half-life: Sprague-Dawley, in vivo. On the procedure: Example 5 provides the single-dose pharmacokinetic studies of Compound I inpreclinical species, including intraperitoneal administration to Swiss-Webster mice and intravaneous administration to Sprague-Dawley rats, Beagle dogs, and Cynomologus monkeys.
Intravaneous doses of Compound I were administered as 30-minute infusions. The pharmacokinetics of Compound I were also studied with coadministration of the carbapenem, Biapenem. Compound I concentrations were determined using an LC-MS detection method.

[3] abbreviates: female, CFW (Swiss-Webster), 25 mg/kg.
Setting [4] is: female, CFW (Swiss-Webster), 100 mg/kg.
The mark [5] stands for this setting: female, CFW (Swiss-Webster), 100 mg/kg, Calc. Conc. (plasma concentration).

SMILES strings stand for the structures.

In series [1] (setting [3]), `C[C@@H](O)[C@H]1C(=O)N2C(C(=O)[O-])=C(SC3Cn4cnc[n+]4C3)[C@H](C)[C@H]12` (stereo partly shown) [Biapenem] gave a Cl of 26.7 mL/min/kg, a maximum concentration (Cmax) of 31200 ng/mL and a half-life of 10.2 min. For the same compound, in series [1] (setting [4]), the Cl came to 16 mL/min/kg, the Cmax was found to be 286000 ng/mL and the half-life is 12.6 min. For the same compound, in series [1] (setting [5]), the concentration at 0.08 h is 1770 ng/mL, the concentration at 0.25 h was 68400 ng/mL, the concentration at 0.5 h is 120 ng/mL and the concentration at 0.75 h is 30500 ng/mL. Besides, in series [1] (setting [5]), the concentration at 3 h is 12.3 ng/mL and the concentration at 4 h is 10.2 ng/mL. For the same compound, in series [1] (25 mg/kg), the AUC was determined as 15.56 mg·h/kg and the “Calc. Conc. (plasma concentrations of Biapenem)” value is listed as “No Peak”. This compound also displayed an AUC in series [1] (100 mg/kg) of 103.55 mg·h/kg.

Regarding `O=C(O)C[C@@H]1CC[C@H](NC(=O)Cc2cccs2)B(O)O1` [Compound I], in series [2] (20 mg/kg IV), the “CL or CL/F” value stood at 28.3 ± 1 mL/min/kg, the AUC is 12200 ± 430 ng·h/mL, the maximum concentration (Cmax) came to 19800 ± 840 ng/mL and the half-life is 96 ± 10.2 min. In series [2] (50 mg/kg IV), the AUC was 28200 ± 2000 ng·h/mL, the concentration peaked (Cmax) at 45900 ± 2000 ng/mL and the half-life was 270 ± 80.4 min.
